Results on two molecules are retold here after publication PMC12735718, “Novel Adamantane–Sclareol Hybrids Exploit ROS Vulnerability to Overcome Multidrug-Resistance in Glioblastoma Cells” (Molecules, 2025).

The subject of one assay is SVG p12 cells. The assay is described as follows: MTT cell viability assay, SVG p12. The format is cell-based, human. To be noted: for IC50: Homo sapiens, SVGp12, 72 h treatment, MTT, normal glial cell line; for Selectivity Index: IC50 SVG p12 vs average IC50 in A-172, U87 and U87-TxR. The protocol: (§1) Cell viability was measured using the colorimetric MTT assay based on the reduction of MTT into formazan dye. Cell lines were seeded into 96-well cell culture plates (4000 cells/well) in appropriate medium. After overnight incubation, cells were treated with increasing concentrations of 1, 2, 3, 4, 5, and 6 (0.5, 1, 2, 4, and 8 µM). After 72 h treatment, MTT solution (4 mg/mL) was added and plates were incubated at 37 °C with 5% CO2 for 3 h. After incubation, formazan crystals were dissolved using 100 µL DMSO, resulting in a purple color. The absorbance was measured at 570 nm with a reference wavelength of 690 nm using an automated microplate reader (MultiskanSky, Thermo Scientific, USA). The IC50 values were determined by non-linear regression analysis in GraphPad Prism 8.0.2. software (GraphPad Software, Boston, MA, USA).
(Tetrazolium dyes change colour on reduction, which living cells bring about.)

Another assay concerns A-172 cells. The assay is described as follows: MTT cell viability assay, A-172. Type of assay: cell-based. To be noted: Homo sapiens, 72 h treatment. The protocol:
as §1

The subject of assay [1] is H2O2 and peroxynitrite anion levels in U87-TxR cells. The assay is described as follows: ROS detection by DHR, U87-TxR. The format is cell-based, human. To be noted: 4 µM, 24 h and 48 h. As for the experimental part: (§2) The levels of ROS were measured in U87 and U87-TxR cells by flow cytometry. The production of superoxide anions was detected using DHE fluorescence dye, while production of H2O2 and peroxynitrite anions was detected using DHR fluorescence dye. Cells were seeded in 6-well plates (150,000 cell/well) and incubated overnight. The cells were then treated with compounds 2 or 5 (4 μM) for 24 h and 48 h. CDDP (10 μM) was used as a positive control. After the treatment period, the cells were stained with DHE or DHR for 30 min in the dark. Following incubation, cells were harvested with trypsinization and washed twice in cold phosphate buffer solution (PBS). Fluorescence was measured on a CytoFlex flow cytometer (Beckman Coulter, Indianapolis, IN, USA). Green fluorescence from the oxidized DHR dye was detected at 525 nm, while the red fluorescence from ethidium derived from DHE was detected at 585 nm. At least 10,000 events were assayed for each sample. The results were analyzed by CytExpert 2.4.0.28 software (Beckman Coulter, Indianapolis, IN, USA).

Assay [2] deals with H2O2 and peroxynitrite anion levels in U87 cells. The assay is described as follows: ROS detection by DHR, U87. The format is cell-based, human. To be noted: 4 µM, 24 h and 48 h. The protocol:
as §2

Assay [3] deals with intracellular superoxide anion in U87 and U87-TxR cells. The assay is described as follows: Superoxide anion detection by DHE. To be noted: 4 µM, 24 h and 48 h. The format is cell-based, human. As for the experimental part:
as §2

The test system of assay [4] is antioxidant-related gene mRNA in U87-TxR cells. The assay is described as follows: RT-qPCR of oxidative-stress-related genes, U87-TxR. Type of assay: cell-based, human. To be noted: 4 µM, 24 h; for increase in GPX1 mRNA expression: relative to untreated control. As for the experimental part: Prior to RNA isolation, U87 and U87-TxR cell were treated with 4 μM 2 and 5 for 24 h. TRIzol® Reagent was used to isolate total RNA according to manufacturer’s instructions. RNA concentration was determined with NanoPhotometer N60 (Implen GmbH, Munchen, Germany). Quality was determined using electrophoresis on a 1.3% agarose gel. Reverse transcription reaction was carried out using High-Capacity cDNA Reverse Transcription Kit with RNase Inhibitor.
Quantitative RT-PCR (RT-qPCR) was performed to evaluate mRNA expression levels of CAT, GSR, SOD2, GPX1, GPX4, GST, TRX1, and TRXR1, with ACTB used as the reference gene. Reactions were carried out using Maxima SYBR Green/ROX qPCR Master Mix (Thermo Fisher Scientific, Waltham, MA, USA) in the QuantStudio™ 3 Real-Time PCR System (Applied Biosystems by Thermo Fisher Scientific). Thermocycling conditions consisted of an initial incubation at 50 °C for 5 min, followed by denaturation at 95 °C for 10 min and then 40 cycles of amplification with denaturation at 95 °C for 15 s and annealing/extension at 60 °C for 60 s. Relative gene expression levels were calculated using the ΔΔCt method, normalizing target gene expression to ACTB. All reactions were performed in technical triplicates.
(Quantitative PCR measures a nucleic acid by following its amplification.)

Assay [5] relates to TrxR (SH-SY5Y cell lysate). The assay is described as follows: Colorimetric detection of cell lysate TrxR activity (DTNB). The format is biochemical, human. To be noted: 50 µM, DTNB absorbance at 412 nm over 20 min. The text has this:
We further analyzed the potential of adamantane–sclareol hybrids to inhibit TrxR enzyme activity using a colorimetric assay for the detection of TrxR activity in cell lysates. This kinetic assay is based on the ability of TrxR to reduce its substrate 5,5ʹ-dithiobis(2-nitrobenzoic acid) (DTNB) to the yellow product 5-thio-2-nitrobenzoic acid (TNB) in the presence of NADPH. The absorbance of the produced TNB is considered equivalent to the enzymic activity of TrxR. In the kinetic assay, the absorbance of DTNB was measured over 20 min, resulting in a curve showing the dependence of absorbance on time.
TrxR enzyme activity in cell lysate was determined by the reduction of the TrxR substrate DTNB to the yellow product TNB in the presence of NADPH (Acros Organics, Thermo Fisher Scientific, Waltham, MA, USA). Lysate from human neuroblastoma SH-SY5Y cells was used for the TrxR assay. SH-SY5Y cells were grown to 80% confluence, washed twice with PBS, and detached using Hanks-based enzyme-free dissociation solution (Millipore, Billeri-ca, MA, USA). Collected cells were centrifuged at 2000 rpm for 3 min and rinsed in PBS buffer. After additional centrifugation, cells were lysed on ice using Lysis Buffer (50 mM Tris, 150 mM NaCl, 1 mM EDTA, 1% NP40, 0.1% SDS, 0.5% Na-deoxycholate, pH 7.8) containing protease inhibitor mix G (SERVA Electrophoresis GmbH, Heidelberg, Germany) and phosphatase inhibitor cocktail 3 (Sigma-Aldrich, Darmstadt, Germany). The cell lysates were centrifuged at 16,000× g for 15 min at 4 °C. The protein concentrations of the supernatants were determined using a Pierce^TM BCA protein assay kit (Thermo Fisher Scientific, Waltham, MA, USA). The reactions were run in 96-well plates, in a final volume of 100 μL, in 50 mM potassium phosphate buffer (pH 7.0) containing 50 μg of cell lysate proteins, 1 mM EDTA, 50 mM KCl, 0.2 mg/mL BSA, and 0.25 mM NADPH. […] Enzyme kinetics were monitored on an automated microplate reader (MultiskanSky, Thermo Fisher Scientific, Waltham, MA, USA) by measuring the increase in absorbance at 412 nm for 20 min. […]

Structures are written as SMILES.

Take `CC1(C)CCC[C@]2(C)[C@@H](CC[C@@](C)(O)/C=C/c3ccc(CNCCCCCCCCNCC45CC6CC(CC(C6)C4)C5)s3)[C@](C)(O)CC[C@@H]12` [Compound 2]: in the assay with SVG p12 cells, the half-inhibitory concentration (IC50) is 6.2 ± 0.145 µM and the “Selectivity Index” value is listed as 2.813 ^S. Moreover, in the assay with A-172 cells, the IC50 is 2.05 ± 0.37 µM. Moreover, in assay [1], the “DHR fluorescence (H2O2 and peroxynitrite anion levels)” value is “increase in DHR fluorescence”. For the same molecule, in assay [2], the “H2O2 and peroxynitrite anion levels (DHR)” value is “slight or no increase”. Also, the “intracellular superoxide anion levels (DHE)” value in assay [3] is listed as “no significant changes”. In addition, in assay [4], the “CAT mRNA expression levels” value is “remained unchanged”; the GSTP gene expression entry was “significantly increased”; the “mRNA expression of SOD2, GSR, and GPX4” value is “increase”; the “increase in GPX1 mRNA expression” value was found to be 1.9 fold. Also, the TrxR enzyme activity result in assay [5] is “do not inhibit TrxR enzyme activity”.
With `CC1(C)CCC[C@]2(C)[C@@H](CC[C@@](C)(O)/C=C/c3ccc(CNCCCCCCCCNCC45CC6CC(CC(C6)C4)C5)o3)[C@](C)(O)CC[C@@H]12` [Compound 5], in the assay on SVG p12 cells, 6.69 ± 0.128 µM corresponded to half-maximal inhibition (IC50) and the “Selectivity Index” value turned out to be 1.470. This molecule registered an IC50 with A-172 cells of 4.74 ± 0.129 µM. For the same molecule, the “DHR fluorescence (H2O2 and peroxynitrite anion levels)” value in assay [1] is reported as “increase in DHR fluorescence”. Besides, the “H2O2 and peroxynitrite anion levels (DHR)” value in assay [2] is given as “slight or no increase”. In assay [3], the “intracellular superoxide anion levels (DHE)” value is reported as “no significant changes”. Besides, in assay [4], the “CAT mRNA expression levels” value is “remained unchanged”; the GSTP gene expression result was “significantly increased”; the “mRNA expression of SOD2, GSR, and GPX4” value is “increase”; the “increase in GPX1 mRNA expression” value was 1.5 fold. Also, the TrxR enzyme activity result in assay [5] was “do not inhibit TrxR enzyme activity”.

The IC50 is the concentration that inhibits the measured activity by half.
